Row | melting point [°C] | Compound
1 | 223 | Cc1cc(C(=O)Nc2cc(Oc3ccc4nc(NC(=O)C5CC5)cn4n3)ccc2C)n(C)n1
2 | 184 to 186 | Cc1ccc(C(=O)Nc2ccc(NCC(C)O)c(C(F)(F)F)c2)cc1Nc1nccc(-c2cccnc2)n1 (configuration not stated)
3 | 204 to 206 | Cc1nc2c(-c3cccc(N4CCN(C)CC4)c3)cnn2c(N)c1-c1ccc(F)cc1
4 | 129 to 130 | CCOC(c1cccc(OCc2nc(-c3ccccc3)oc2C)c1)c1ccc(OC)cc1OCC(=O)O (configuration not stated)
5 | 225 to 227 | CNS(=O)(=O)c1ccc(-c2cnc3[nH]c(CCc4cc(OC)ccn4)nc3c2)cc1
6 | 175 to 176 | O=C(O)c1cc(C(F)(F)F)nn1-c1ncccc1Cl
7 | 174 to 176 | COCc1ccoc1-c1cc(-n2c(N)nc3ccccc32)ccc1C
8 | 176 to 177 | CC(O)(c1cccc(C(F)(F)F)c1)c1cc2cccc(-c3cccc(C(=O)NCCO)c3)c2s1 (configuration not stated)
9 | 160 to 161 | CCOc1nn(Cc2ccc(OCc3cn4c(-c5ccccc5)cccc4n3)cc2)cc1CCC(=O)O
10 | 142 to 143 | O=C(NNC(=O)c1occ(-c2ccccc2)c1-c1ccccc1)c1ccc(O)c(C(F)(F)F)c1
11 | 101 to 102 | Cc1cc(C#N)cnc1C(=O)Nc1ccc(F)c([C@]2(C)CO[C@@](C)(C(F)(F)F)C(N)=N2)c1
12 | 78 | COc1cccc(Nc2ccnc(Nc3cc(OC)c(OC)c(OC)c3)n2)c1
13 | 239 to 241 | Fc1cc(CC2(Cc3ccnc(F)c3)c3cccnc3-c3ncccc32)ccn1
14 | 91 to 94 | COc1cccc(C2=C(c3ccc(C(=O)N4Cc5cccn5Cc5ccccc54)cc3C)CCCC2)c1
15 | 112 to 114 | O=C(NCc1ccccc1)Oc1ccc2c(ccn2Cc2ccncc2)c1
16 | 206 to 208 | N#Cc1cccc(C(=O)Nc2ccc(-n3nc(C(F)(F)F)cc3C(F)(F)F)nc2)c1
17 | 171 to 172 | CC(=O)Oc1c(C(C)(C)C)cc(C#N)c(C)c1C(=O)Nc1ccc(C#N)cc1C(F)(F)F
18 | 173 to 174 | Cc1c(CNCC2CCOCC2)n(C)c2c(C)c(NC(=O)c3ccc(OC[C@@H]4CCCO4)cc3)ccc12
19 | 192 to 196 | CCCCc1oc2ccccc2c1C(=O)NCc1ccc2c(-c3ccccc3)c(OCc3nnn[nH]3)ccc2c1
20 | 186 to 188 | CC(C)(C)C(NC(=O)Cc1ccc(Cl)cc1)NC(Cc1cccc2ncccc12)=NC#N (configuration not stated)
21 | 154 to 156 | CCOC(=O)C(=O)CC(=O)c1cn(Cc2ccc(OC)cc2)c2ccccc2c1=O
22 | 139 | COc1ccc(CCN(C)CCOc2ccc(NC(=O)c3cccc4c(=O)c5ccccc5n(C)c34)cc2)cc1OC
23 | 145 to 147 | O=C(Nc1ccc(-n2nc(C(F)(F)F)cc2C(F)(F)F)cc1)c1cccnc1Cl
24 | 248 to 250 | CC(C)(C#N)c1ccc(C(=O)Nc2cn3cc(Cl)ccc3n2)cc1
25 | 133 to 135 | O=C(NC(Cc1c[nH]c2ccccc12)C(=O)CCc1cc(C(F)(F)F)cc(C(F)(F)F)c1)OCCc1ccccn1 (configuration not stated)
26 | > 300 | CN1CC(Oc2ccc(Nc3cc(-c4cccc(-n5ncc6cc(C(C)(C)C)cc(F)c6c5=O)c4CO)cn(C)c3=O)nc2)C1
27 | 100 to 102 | C=Cc1c(NCc2ccco2)nc(-c2ccc(Cl)c(OC)c2F)nc1C(=O)OC
28 | 195 | CCOC(=O)c1ccccc1N(CC(=O)N(C)c1ccccc1)C(=O)CNC(=O)Nc1cccc(C(C)O)c1 (configuration not stated)
29 | 118 to 120 | O=C1NC(=O)C(Cc2ccc3c(c2)CCC(Cc2ccc(OCc4ccccc4)cc2)O3)S1 (configuration not stated)

Further lines, the compound ahead of its results:

Row | Compound | melting point [°C]
30 | CCC1(CCOS(C)(=O)=O)C(=O)N2CC=CC(C(=O)OC)N2C1=O (configuration not stated) | 94 to 96
31 | O=C(O)c1ccc2c(c1)c(=O)[nH]c(=O)n2CCCCN1CCC(OC(c2ccccc2)c2ccccc2)CC1 | 161 to 163
32 | CCOC(=O)c1nc(S)n(-c2ccccc2)c1C(=O)OCC | 145 to 146
33 | O=C(c1ccc2nc(C3CC3)n(Cc3ccccc3Cl)c2c1)N1CCOCC1 | 193 to 195
34 | Brc1ccc2c(c1)C(c1ccccn1)=CCc1nncn1-2 | 219
35 | C[Si](C)(C)C#CC1(O)CCCCC1 | 72 to 73
36 | O=C(Cl)N1CCC(Oc2cccc3c2CCC3)C1 (configuration not stated) | 128 to 129
37 | CCOC(=O)NNC(=O)CC(F)=C(F)F | 110
38 | O=C(c1ccccc1F)C1(O)CCNCC1 | 133 to 135
39 | CN1C(=O)CCC2=C1CCc1cccc(F)c12 | 75 to 76
40 | Cc1cc(C)cc(N2CCN(C(=O)NCC(c3ccccc3)c3ccccc3)CC2)c1 | 174 to 175
41 | O=C(c1ccccc1)c1cccc2c(Cl)c[nH]c12 | 145 to 149
42 | CS(=O)(=O)Nc1ccc2c(c1)C(=O)C1(CC1)O2 | 152 to 154
43 | COC(=O)[C@H](CSCc1ccccc1)NC(=O)Nc1n[nH]c(=S)s1 | 169 to 172
44 | CON=Cc1nn(-c2c(Cl)cc(C(F)(F)F)cc2Cl)c(N)c1SC(F)(F)F | 129 to 132
45 | Nc1ccc2c(ccn2Cc2ccccc2)c1 | 66 to 68
46 | Cc1ccc2oc(Br)c(-c3ccccc3)c2c1 | 52 to 57
47 | O=[N+]([O-])c1ccc2nc3c(nc2c1)OCC1CCCN31 (configuration not stated) | 234 to 237
48 | COc1cc(OC)cc(N2CCN(C(=S)Nc3cc4c(nc3OC)CCCC4)CC2)c1 | 160 to 161
49 | COc1ccc(-c2[nH]cnc2-c2cc(OC)c(O)c(OC)c2)cc1F | 125 to 127
50 | Cc1ccc(S(=O)(=O)ON=C2C3=C(C=C4OCCC42)CCCO3)cc1 (configuration not stated) | 118
51 | CC(C)(C#N)ON1C(C)(C)CC(OC(=O)c2ccccc2)CC1(C)C | 128 to 129
52 | O=C(NCC12CC3CC(CC(C3)C1)C2)c1cc(-c2ccc(Cl)c(C(=O)O)n2)ccc1Cl | 154 to 159

Row | Compound | melting point [°C]
53 | CCOC(=O)c1cc(-n2c(OC)nc(C(F)(F)F)c(F)c2=O)c(F)cc1Cl | 69 to 72
54 | CCCCCCCCCc1nnc(C2=C(OC(C)=O)c3ccccc3S(=O)(=O)N2C)o1 | 118 to 119
55 | CC(C)C(NC(=O)OCc1ccccc1)C(=O)NC(Cc1ccccc1)C(O)C(Cc1ccccc1)NC(=O)C(NC(=O)OCc1cccnc1)C(C)C (configuration not stated) | 177 to 178
56 | O=C1Oc2ccccc2C1(Cc1ccccc1)Cn1cncn1 (configuration not stated) | 150
57 | O=C(Nc1ccc(F)cc1)N(CCO)CCCCO | 62 to 64
58 | CCOCc1nc2c(N)nc3cc(OCCN)ccc3c2n1CC(C)(C)O | 163 to 165
59 | CC(C(=O)O)c1ccc2c(c1)C(=O)Cc1cc([N+](=O)[O-])ccc1S2 (configuration not stated) | 210 to 211
60 | CCc1ccc2c(O)c(CO)cnc2c1 | 180 to 182
61 | CC(F)(F)S(=O)(=O)c1c(C(N)=S)nn(-c2c(Cl)cc(C(F)(F)F)cc2Cl)c1N | 228 to 229
62 | COC(=O)c1cc(OC)c(CCNC(C)=O)c(OC)c1 | 233 to 235
63 | CC(=O)O[C@H]1CCNC1=O | 85.5 to 87
64 | COc1cc(C)cc2nc(SCc3ccccc3)nn12 | 85 to 87
65 | CC1(c2nnn[nH]2)CC(Cl)(I)C=CC1N (configuration not stated) | 205 to 208
66 | CCc1cc(C)cc(CC)c1C1C(=O)CC(CC(C)S(=O)CC)CC1=O (configuration not stated) | 58 to 61
67 | CN1CCN(NC(=O)Nc2cccc3c2C(=O)c2c-3n[nH]c2-c2ccc(N3CCN(C)CC3)cc2)CC1 | 293
68 | O=C1c2ccccc2C(=O)N1CCCN(c1ccccc1)c1ccccn1 | 103 to 105
69 | Cc1cn(C2(C(=O)N(C)C)CC2)nc1-c1ccccc1 | 52 to 55
70 | COc1ccc(-c2cnn3c(N)c(-c4cccc(Cl)c4)c(C)nc23)cc1OC | 223 to 226
71 | Nc1n[nH]c2ccc(OCc3ccccc3)cc12 | 193 to 195
72 | O=Cc1c(O)c(Cl)cc(Cl)c1F | 58 to 62
73 | CC1C(C)(C)C2=C(c3ncncc3CC2)C1(C)C (configuration not stated) | 80
74 | COCC1CN(c2cc3c(cc2F)c(=O)c(C(=O)O)cn3-c2ccc(F)cc2)CCN1 (configuration not stated) | 216 to 218
75 | ON=C1CCC(c2ccccc2)CC1c1ccccc1 (configuration not stated) | 214 to 215

Row | Compound | melting point [°C]
76 | CCC1(c2ccccc2)Cc2cc(OC)c(Cl)c(Cl)c2C1=O (configuration not stated) | 139 to 141
77 | CC(O)c1ccc(C(C)(C)C)cc1 (single isomer, unassigned; (+)) | 85
78 | CN(C)C(=O)Cc1cccc(NC(=O)N(C)C)c1 | 80 to 81
79 | COc1ccc2c(c1)CCC1C3CC4OCCOC4C3(C)CCC21C (configuration not stated) | 115
80 | O=C1NC(=O)C(CC(=O)N2CCN(c3cccc(CNC(=O)c4nc5ccccc5c(=O)[nH]4)c3)CC2)N1 (configuration not stated) | 280 to 282
81 | COC(=O)c1ccc(C=CC=O)cc1 | 99 to 101
82 | FC(F)(F)c1cccc(NC2CCCN(c3ccc(Cl)nn3)C2)c1 (configuration not stated) | 92.6
83 | COC(=O)C(C)(C)OCc1cc2cc(Cl)ccc2n1S(=O)(=O)c1cc(C)cc(C)c1 | 110 to 112
84 | [N-]=[N+]=Nc1nc(N)c2ncn(COCCO)c2n1 | 191 to 192
85 | O=CNNC(=O)N1Cc2ccccc2Oc2ccc(Cl)cc21 | 177 to 181
86 | CCOCc1cnc2c(N)cccc2c1Cl | 90 to 93
87 | NC(=O)c1cc(OCCCN2CCN(c3cccc4sccc34)CC2)c2ccccc2n1 | 153 to 154
88 | COC(=O)Nc1ccc(C(=O)OC)cc1 | 177 to 178
89 | COC(=O)CCCc1cc2cc(Cl)ccc2n1S(=O)(=O)c1ccc(N)c(N)c1 | 158 to 160
90 | O=C1CCCCCCCCCCC=CCCCCCCCCCCC1O (configuration not stated) | 78
91 | CCOC(=O)C(=O)Nc1cc(C#N)ccc1O | 295
92 | Cc1cc(C)c(S(=O)(=O)NCCS)c(C)c1 | 73
93 | COC(=O)c1cccc2c1c1c(OC)c3c(cc1n2Cc1ccccc1)CCCC3 | 144 to 146
94 | CC(=O)Oc1cccc(C(=O)c2ccccc2)c1OC(C)=O | 81 to 83
95 | CNC(=O)OC1CCN(C(=O)Oc2ccc(Oc3ccccc3)cc2)CC1 | 117 to 119
96 | COc1ccc(C(=O)N2Cc3ccccc3CC2C(=O)O)cc1 (configuration not stated) | 178 to 180
97 | O=Cc1c(F)cc(F)cc1-c1ccc(F)cc1 | 69 to 71

From a melting point compilation (Tetko et al.; mined from patent text by program, amines drawn as free bases though some values may be those of a salt)
